Results as given in patent US11464821B2, “Composition for reducing cancer cachexia or weight loss caused by anticancer drug therapy or radiation therapy comprising ginseng extract having increased ginsenoside Rg3 and Rh2” (GREEN CROSS WELLBEING CORPORATION, priority 2013, dated 2022).
Read-outs that look alike come from different tables or passages of the source. Marks after values point to notes of the source that are not given here.

Key:
Format in all cases: in vivo, Balb/c-nu/nu mice
[1] = tested on: animal models xenografted with HT-29 colon cancer cell line
Procedure: (§1) 6-wk-old Balb/c-nu/nu female mice weighing 20±2 g were obtained from Orient Inc., and housed in animal rooms under a temperature of 23±1° C., relative humidity of 55±15%, and 12-hour light/dark illumination cycle. […] After acclamation for 1 week, 100 μl of HT-29 cells (5×10^6 cells/mouse) were subcutaneously injected into the flank of the Balb/c nu/nu mouse, and the mice were observed by the naked eyes. The mice were randomized into groups when the tumor size reached 150 mm^3, and then drug administration was initiated. Voluntary motor activity (running wheel activity) and forced motor activity (swimming test) were measured after the administration of anticancer drug and drugs was completed, and the amount of glycogen synthesized in the muscle was assayed through an ELISA kit after the tissue taken from the femoral region on the final date of autopsy was homogenized. Running wheel activity (Running distance=meter/10 min)
(§2) All the examples and comparative examples were diluted in phosphate buffered saline (PBS) according to the dosage, and compulsorily administered to the animals using needle for oral administration (Sonde). The dosage was diluted in PBS to 100 mg/kg of body weight, and the dosage was calculated such that 100 μl/20 g was administered depending on the weight measured on the day of administration. Test materials were administered at the same time once per day, at 10 AM, for 4 weeks, for the examples and comparative examples.
Evaluation was conducted in the same conditions as in test example 1, except that all the examples and comparative examples were compared in the conditions of treatment with an anticancer drug. The treatment with 5-FU as an anticancer drug was conducted at 30 mg/kg three times per week.

[2] = tested on: animal models xenografted with HT-29 colon cancer cell line; experiment: Glycogen synthesized in femoral muscle (ELISA kit) under radiation treatment, test example 3
Procedure: as §1, §2
Evaluation was conducted in the same conditions as in test example 1, except that all the examples and comparative examples were compared in the conditions of radiation treatment. The radiation treatment was conducted at 10 Gy three times per week.

[3] = tested on: animal models xenografted with HT-29 colon cancer cell line; experiment: Swimming test (forced motor activity), test example 1; settings: HT-29 xenografted mice, 100 mg/kg oral, every day for 4 weeks
Procedure: as §1
A transparent temperature-constant water bath (500 mm×500 mm×400 mm), which maintained the designated temperature and water level, was filled with warm water (23±1° C.), and then the animals were subjected to forced swimming (FS). The swimming time immediately after total exhaustion was recorded. […]

[4] = tested on: animal models xenografted with HT-29 colon cancer cell line; experiment: Running wheel activity (voluntary motor activity), test example 1; settings: HT-29 xenografted mice, 100 mg/kg oral, every day for 4 weeks
Procedure: as §1
The voluntary motor activity was measured as the parameter of cancer-related fatigue (CRF) through running wheel activity. The number of wheels ran for a total of 10 min on 300Ø wheel was counted, and running distance was calculated. *Running distance=circumference (30 cm×3.14)×number of wheels/10 min […]

Compound	Mean Muscle Glycogen ([1]; HT-29 xenografted mice, co-administered with 5-FU 30 mg/kg i.p. 3 days per week, 100 mg/kg oral daily for 4 weeks, femoral muscle)	Increase (%) in glycogen synthesis, compared with control ([1]; co-administered with 5-FU 30 mg/kg i.p. 3 days per week, 100 mg/kg oral daily for 4 weeks, vs 5-FU control)	amount of glycogen synthesis compared with control group administered with the anticancer drug (in words) ([1]; co-administered with 5-FU for 4 weeks)	Mean Muscle Glycogen ([2]; HT-29 xenografted mice, with radio therapy 10 Gy 3 days per week, oral daily for 4 weeks, femoral muscle)	amount of glycogen synthesis compared with control group treated with radiation (in words) ([2]; combined with radiation treatment for 4 weeks)	Increase (%) in glycogen synthesis, compared with control ([2]; with radio therapy 10 Gy 3 days per week, oral daily for 4 weeks, vs radio therapy control)	Total swimming time ([3]; forced swimming to exhaustion, water 23±1° C.)	Increase (%) in swimming time, compared with control ([3]; vs xenograft control)	Running distance for 10 min (meter/10 min) [4]	Incerase (%) in running distance for 10 min, compared with control ([4]; vs xenograft control)	Mean Muscle Glycogen (mg/g), 5-FU control ([1]; mouse, in vivo)	reduction of amount of glycogen synthesis compared with the normal groups ([1]; mouse, in vivo)
NC(=O)C[S+]([O-])C(c1ccccc1)c1ccccc1 (stereo not drawn) [Comparative example 12, Modafinil]	4.3 ± 0.5 mg/g	18.4%	did not show any great change	3.9 ± 0.2 mg/g	did not show any great change	7.9%	731.8 ± 60.1 s	63.5%	80.1 ± 1.9** meter/10 min	52.6%		
O=c1[nH]cc(F)c(=O)[nH]1 [Example 5-FU, 5-fluorouracil]											3.6 ± 0.34 mg/g	51.4%
